The NIST ThermoML archive (doi:10.1016/j.jct.2016.09.008)
Numbers after ± are expanded uncertainties.

Tests used:
[1] = 298.15 K; 101.33 kPa; Liquid; Vibrating tube method
[2] = refractive index (Na D-line) (dimensionless); settings: 298.15 K; 101.33 kPa; Liquid; Standard Abbe refractometry
[3] = refractive index (Na D-line) (dimensionless); wn = mass fraction of the nth substance listed; settings: 298.15 K; 101.1 kPa; Liquid; Standard Abbe refractometry; w1 = 0.85
[4] = wn = mass fraction of the nth substance listed; settings: 298.15 K; 101.1 kPa; Liquid; Vibrating tube method; w1 = 0.85

| Compound | mass density [1] | refractive index [2] | refractive index [3] | mass density [4] |
| --- | --- | --- | --- | --- |
| CC1COC(=O)O1 (stereo not given) [4-methyl-1,3-dioxolan-2-one] | 1198.3 ± 2.4 kg/m3 | 1.419 ± 0.0005 | – | – |
| O=P(O)(O)O [phosphoric acid] + O | – | – | 1.432 ± 0.0005 | 1682.8 ± 2.5 kg/m3 |
| O [water] | – | 1.3326 ± 0.0005 | – | – |
